Test [1] has as its target T1, Human vitronectin receptor (αv β3) (Homo sapiens, UniProt P05106+P06756).
T1 construct: Human vitronectin receptor (αv β3) was purified from human placenta; from tissue; host or cells: human placenta
Nature of the test: Vitronectin adhesion assay (solid phase receptor assay, αvβ3). It counts as binding. The following applies: inhibition of binding of biotinylated human vitronectin (1 nM) to purified receptor; Table I; read-out: AvB3 IC50. The method, boiled down: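 Placental αvβ3 (100 ng/well) coated in TBS with 1 mM Ca, Mg, Mn, pH 7.4, then compound competed with 1 nM biotinylated vitronectin for 2 h at room temperature (top compound concentration 1.0×10^-4 M). Bound ligand detected with HRP anti-biotin/OPD at 450 nm; values normalized to maximum binding, four-parameter curve fit.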

The target of test [2] is T2, Human fibrinogen receptor (αIIb β3) (Homo sapiens, UniProt P05106+P08514).
T2 construct: Human fibrinogen receptor (αIIb β3) was purified from outdated platelets; from tissue; host or cells: human outdated platelets
T2 sequence (P08514 32-887 limits assumed): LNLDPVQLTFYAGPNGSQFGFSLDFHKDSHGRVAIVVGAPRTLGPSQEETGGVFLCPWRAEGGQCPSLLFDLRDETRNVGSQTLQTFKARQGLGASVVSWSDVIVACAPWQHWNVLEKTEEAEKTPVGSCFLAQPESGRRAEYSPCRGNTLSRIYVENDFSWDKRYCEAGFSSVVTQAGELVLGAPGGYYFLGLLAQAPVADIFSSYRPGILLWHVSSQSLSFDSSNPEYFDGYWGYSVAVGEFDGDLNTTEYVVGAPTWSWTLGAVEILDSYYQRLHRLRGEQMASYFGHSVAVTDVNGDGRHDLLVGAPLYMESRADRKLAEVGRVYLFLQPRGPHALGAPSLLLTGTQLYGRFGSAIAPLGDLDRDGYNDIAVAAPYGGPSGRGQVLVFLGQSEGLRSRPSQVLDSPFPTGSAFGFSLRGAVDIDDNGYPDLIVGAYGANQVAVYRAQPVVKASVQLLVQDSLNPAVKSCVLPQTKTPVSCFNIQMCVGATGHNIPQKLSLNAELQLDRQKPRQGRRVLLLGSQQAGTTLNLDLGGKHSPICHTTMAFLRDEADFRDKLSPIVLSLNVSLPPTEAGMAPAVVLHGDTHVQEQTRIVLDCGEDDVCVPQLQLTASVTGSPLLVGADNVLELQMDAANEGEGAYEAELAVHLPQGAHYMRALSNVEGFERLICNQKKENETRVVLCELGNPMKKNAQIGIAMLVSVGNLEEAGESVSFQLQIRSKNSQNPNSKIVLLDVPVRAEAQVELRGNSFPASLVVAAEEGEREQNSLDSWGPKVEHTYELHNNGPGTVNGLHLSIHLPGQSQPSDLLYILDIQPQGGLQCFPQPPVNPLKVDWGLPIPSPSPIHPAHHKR
T2 sequence (P08514 891-1039 limits assumed): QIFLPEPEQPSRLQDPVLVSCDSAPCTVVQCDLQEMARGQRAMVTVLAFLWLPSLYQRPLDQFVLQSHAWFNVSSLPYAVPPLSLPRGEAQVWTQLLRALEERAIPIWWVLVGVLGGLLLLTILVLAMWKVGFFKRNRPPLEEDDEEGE
T2 sequence (P05106 27-788): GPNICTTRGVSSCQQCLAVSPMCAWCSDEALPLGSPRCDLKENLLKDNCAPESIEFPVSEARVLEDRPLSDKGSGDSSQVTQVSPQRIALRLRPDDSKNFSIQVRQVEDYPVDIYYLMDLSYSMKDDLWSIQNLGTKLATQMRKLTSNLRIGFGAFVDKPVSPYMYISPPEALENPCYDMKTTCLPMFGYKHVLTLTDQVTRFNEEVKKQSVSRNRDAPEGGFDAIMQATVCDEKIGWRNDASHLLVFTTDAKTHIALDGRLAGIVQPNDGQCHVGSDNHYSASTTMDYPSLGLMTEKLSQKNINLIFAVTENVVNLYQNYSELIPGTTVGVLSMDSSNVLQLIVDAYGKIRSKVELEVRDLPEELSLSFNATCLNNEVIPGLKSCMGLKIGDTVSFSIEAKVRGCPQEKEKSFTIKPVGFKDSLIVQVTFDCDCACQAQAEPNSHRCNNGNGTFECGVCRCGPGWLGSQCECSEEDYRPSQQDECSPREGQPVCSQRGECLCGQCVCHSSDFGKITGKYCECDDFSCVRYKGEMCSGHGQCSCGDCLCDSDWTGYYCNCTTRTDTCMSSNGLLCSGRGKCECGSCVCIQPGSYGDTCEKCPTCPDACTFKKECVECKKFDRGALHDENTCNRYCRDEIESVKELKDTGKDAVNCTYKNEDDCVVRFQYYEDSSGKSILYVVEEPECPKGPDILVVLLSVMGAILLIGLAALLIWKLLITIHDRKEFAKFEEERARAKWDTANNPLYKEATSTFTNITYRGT
Nature of the test: Purified IIb/IIIa receptor assay (solid phase receptor assay). Particulars: inhibition of binding of biotinylated human vitronectin (1 nM) to purified receptor; Table I. Put shortly:
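Platelet-purified αIIbβ3 (100 ng/well) coated overnight at 4 °C, then competed 2 h at room temperature against 1 nM biotinylated human vitronectin in TBS with 1.0 mM Ca/Mg/Mn, pH 7.4, 1% BSA; top compound 1.0×10^-4 M. Bound ligand detected by HRP anti-biotin, A450, normalized to maximum binding, four-parameter fit.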

Molecules are shown by their SMILES. Where a name gives a salt, the structure may show the parent alone.

T1 sequence (P06756 31-889 limits assumed): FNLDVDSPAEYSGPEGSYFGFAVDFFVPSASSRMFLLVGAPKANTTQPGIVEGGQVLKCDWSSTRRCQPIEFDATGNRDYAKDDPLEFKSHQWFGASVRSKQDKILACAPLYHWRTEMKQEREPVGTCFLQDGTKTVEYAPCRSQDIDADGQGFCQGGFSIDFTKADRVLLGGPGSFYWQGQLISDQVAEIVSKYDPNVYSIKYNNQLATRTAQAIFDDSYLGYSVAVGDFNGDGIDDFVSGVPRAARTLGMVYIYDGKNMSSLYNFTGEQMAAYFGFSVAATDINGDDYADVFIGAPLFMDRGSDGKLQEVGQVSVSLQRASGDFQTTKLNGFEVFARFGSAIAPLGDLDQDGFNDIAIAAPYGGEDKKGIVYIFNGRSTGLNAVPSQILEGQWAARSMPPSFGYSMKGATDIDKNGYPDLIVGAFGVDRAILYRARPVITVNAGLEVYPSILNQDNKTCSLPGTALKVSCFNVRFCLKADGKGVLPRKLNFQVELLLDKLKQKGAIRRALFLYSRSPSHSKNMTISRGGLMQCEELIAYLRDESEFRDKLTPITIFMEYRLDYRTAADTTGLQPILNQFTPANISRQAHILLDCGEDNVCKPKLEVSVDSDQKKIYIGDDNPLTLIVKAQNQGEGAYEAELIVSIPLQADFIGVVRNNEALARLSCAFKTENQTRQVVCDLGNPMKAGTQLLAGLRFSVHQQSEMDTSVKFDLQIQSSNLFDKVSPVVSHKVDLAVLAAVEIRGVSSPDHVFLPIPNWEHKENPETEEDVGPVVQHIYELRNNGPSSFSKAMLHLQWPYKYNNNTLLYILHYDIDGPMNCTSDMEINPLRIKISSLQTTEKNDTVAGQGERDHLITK
T1 sequence (P06756 891-1048 limits assumed): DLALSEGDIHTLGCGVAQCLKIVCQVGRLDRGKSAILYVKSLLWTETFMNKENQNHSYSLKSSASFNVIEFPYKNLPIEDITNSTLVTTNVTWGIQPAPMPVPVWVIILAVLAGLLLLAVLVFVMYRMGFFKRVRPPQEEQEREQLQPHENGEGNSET
T1 sequence (P05106 27-788): as the sequence (P05106 27-788) above

For the compound `N=C(N)Nc1cccc(-c2ncc(-c3ccc(/C=C/C(=O)O)cc3)[nH]2)c1` [Example 104, 3-[4-[2-[3-[(aminoiminomethyl)amino]phenyl]-1H-imidazol-5-yl]phenyl]propenoic acid, trifluoroacetate salt], the IC50 in test [1] is 17300 nM; in test [2] it was 24.5 nM.

For the compound `N=C(N)Nc1cccc(C(=O)Nc2ccc(/C=C/C(=O)O)cc2Cl)c1` [Example 9, 3-[4-[[[3-[(aminoiminomethyl)amino]phenyl]-carbonyl]amino]3-chlorophenyl]propenoic acid, trifluoroacetate salt], the IC50 in test [1] worked out at 3.46 nM; in test [2] it was 11 nM.

Turning to `N=C(N)Nc1cccc(C(=O)Nc2ccc(/C=C/C(=O)O)cc2C(F)(F)F)c1` [Example 12, 3-[4-[[[3-[(aminoiminomethyl)amino]phenyl]carbonyl]amino]-3-(trifluoromethyl)phenyl]-2E-propenoic acid, trifluoroacetate salt], the IC50 in test [1] was determined as 155 nM; in test [2] it was 670 nM.

As to `N=C(N)Nc1cccc(C(=O)NCc2cccc(C(=CC(=O)O)c3cc(Cl)cc(Cl)c3)c2)c1` [Example 75, 3-[3-[[[[3-[(aminoiminomethyl)amino]phenyl]carbonyl]amino]methyl]phenyl]-3-(3,5-dichlorophenyl) propenoic acid, trifluoroacetate salt], the figures for the IC50 in test [1] and in test [2] were 42700 nM and over 100000 nM, respectively.

In the case of `Cc1cc(/C=C/C(=O)O)cc(C)c1NC(=O)c1cccc(NC(=N)N)c1` [Example 13, 3-[4-[[[3-[(aminoiminomethyl)amino]phenyl]carbonyl]-amino]-3,5-dimethylphenyl]-2E-propenoic acid, trifluoroacetate salt], the IC50 was found to be 23.1 nM in test [1] and 2160 nM in test [2].

Take `N=C(N)Nc1cccc(-c2coc(-c3ccc(C=CC(=O)O)cc3)n2)c1` [Example 103, 3-[4-[4-[3-[(aminoiminomethyl)amino]phenyl]oxazol-2-yl]phenyl]propenoic acid]: the IC50 in test [1] came out at 32100 nM; in test [2] it was 0.9 nM.

For the compound `O=C(O)/C=C/c1ccc2c(c1)CCN2C(=O)c1cccc(NC2=NCCCN2)c1` [Example 76, 3-[2,3-dihydro-1-[[3-[(1,4,5,6-tetrahydropyrimidin-2-yl)amino]phenyl]carbonyl]-1H-indol-5-yl]propenoic acid, trifluoroacetate salt], the IC50 in test [1] is 8.8 nM; in test [2], 825 nM.

Consider `O=C(O)/C=C/c1ccc2c(c1)CCCN2C(=O)c1cccc(NC2=NCCCN2)c1` [Example 78, 3-[1-[[3-[(1,4,5,6-tetrahydropyrimidin-2-yl)amino]phenyl]carbonyl]-1,2,3,4-tetrahydro-quinolin-6-yl]propenoic acid, trifluoroacetate salt], for which the IC50 in test [1] was 56.3 nM; in test [2] it was 1790 nM.

`O=C(O)/C=C/c1ccc(NC(=O)c2cccc(NC3=NCCN3)c2)c(Cl)c1` [Example 23, 3-[3-chloro-4-[[[3-[(4,5-dihydro-1H-imidazol-2-yl)amino]-phenyl]carbonyl]amino]phenyl]-2E-propenoic acid, trifluoroacetate salt]: the IC50 in test [1] was found to be 0.31 nM; in test [2] it was 80.3 nM.

For the compound `N=C(N)Nc1cccc(-c2nc(-c3cccc(/C=C/C(=O)O)c3)co2)c1` [Example 102, 3-[3-[2-[3-[(aminoiminomethyl)amino]phenyl]oxazol-4-yl]phenyl]propenoic acid, trifluoroacetate salt], the IC50 in test [1] amounted to 1940 nM; in test [2], 4480 nM.

On to `N=C(N)Nc1cccc(C(=O)Nc2ccc(C(=CC(=O)O)c3ccccc3)cc2)c1` (single isomer, unassigned) [Example 58, 3-[4-[[[3-[(aminoiminomethyl)amino]phenyl]-carbonyl]amino]phenyl]-3-phenylpropenoic acid, trifluoroacetate salt], for which the values for the IC50 in test [1] and in test [2] were 79.8 nM and 2270 nM, respectively.

The values are drawn from patent US5852210A, “Cinnamic acid derivatives” (G. D. Searle & Co., priority 1997, dated 1998).
